{"source": "patent US11150255B2", "about": "“Additive channels” (Emulate Inc., priority 2016, dated 2021)", "key": {"FcγRIIa": {"tested_on": "FcγRIIa", "experiment": "Vessel-On-Chip thrombosis, all endpoints (platelet coverage, fibrin deposition, TAT)", "assay_type": "cell-based, human", "details": "for hu5C8-mediated thrombosis on-chip (platelet coverage, fibrin deposition, TAT): with sCD40L 10 ng/ml, IV.3 1 μg/ml pre-incubation or IgG2σ variant in place of hu5C8"}, "[1]": {"tested_on": "fibrin deposition on the endothelium", "experiment": "Vessel-On-Chip blood perfusion, fibrin deposition by fluorescent fibrinogen imaging", "assay_type": "cell-based, human", "details": "for fibrin deposition / fibrin signal intensity: TNF-α 50 ng/ml 6 hours endothelial pre-treatment or sCollagen 10 μg/ml in blood, vs blood alone; for fibrin deposition / fibrin clot formation: hu5C8 240 μg/ml, sCD40L 10 ng/ml, untreated endothelium, 60 μl/minute, vs untreated blood", "protocol": "(§1) Briefly, human blood was drawn in citrate buffer and used within 4 hours. Platelets were stained using fluorescently labeled non-blocking antibodies for the platelet surface marker CD41 and low dosages of fluorescent fibrinogen were added in order to visualize fibrin deposition. Blood was re-calcified in order to re-establish the full coagulation potential, then introduced in the biomimetic vessel-on-chip from the main inlet (embodiments of inlets shown in FIG. 18A-1, FIG. 18A-2 and FIG. 19C). The outlet of the chip was connected to a pulling syringe pump with a system of tubing and connectors made of medical grade silicon that excludes any metal components or potential causes of platelet activation (FIG. 5A).\n(§2) After 14 minutes of perfusion, the flow was interrupted and the chips were immediately imaged via fluorescence microscopy (FIG. 18C and FIG. 19D). In healthy conditions, endothelial cells will provide an antithrombotic surface where blood can flow smoothly, and indeed we detected minimal platelet adhesion or fibrin deposition in our vessel-on-chip after blood perfusion in control conditions, FIG. 18C, Blood.\nWhen analyzing the formation of fibrin, […] of fluorescently labeled fibrinogen (Alexa 488, Invitrogen) was also added to the blood. While fluorescent fibrinogen was barely detected as a diffused fluorescence, fibrin deposition on inflamed cells and sparse clots was easily distinguished since fibrin formed filamentous structures produce a signal intensity that is clearly observed above a background threshold.\n(§3) Chips perfused with blood samples were immediately imaged via fluorescence microscopy (Olympus IX83, 10× objective UPLFLN10×2, Orca-Flash4.0 CMOS Camera). Each chamber was inspected along its entire length and S images (about 0.25 cm) were captured from the central area of the chamber. Image processing and quantification was performed with an automatic macro compiled in ImageJ and numerical values corresponding to platelet coverage or fibrin florescence were collected and statistically analyzed in Graphpad Prism V7.\n(§4) A percentage of signal coverage (or Platelet coverage) was computed from the binary image as the ratio of bright pixels to the total number of pixels in the image. Image processing and quantification was performed with an automatic macro compiled in ImageJ in order to ensure unbiased signal measurements. Numerical values corresponding to platelet coverage or fibrin fluorescence (signal intensity) were collected and statistically analyzed in Graphpad Prism V7."}, "[2]": {"tested_on": "thrombin anti-thrombin complex (TAT)", "experiment": "Thrombin anti-thrombin (TAT) ELISA in chip effluent plasma", "assay_type": "cell-based, human", "details": "TNF-α endothelial pre-treatment or sCollagen in blood; outflow samples", "protocol": "Thrombin converts fibrinogen into fibrin during clot formation, and anti-thrombin plays a role in maintaining homeostasis by inhibiting the effect of thrombin. Formation of TAT in the microdevice confirms that local and intrinsic generation of thrombin, a potent platelet agonist, occurs in the model and that counter regulatory mechanisms for coagulation are retained. Thus, blood sampled from the Vessel-On-Chip was analyzed for thrombin anti-thrombin complex (TAT), an accepted clinical biomarker for procoagulation^48,49. […] An enzyme-linked immunosorbant assay (ELISA) was used to quantify the thrombin anti-thrombin complex (TAT).\nThrombin Anti-Thrombin (TAT) levels were analyzed in plasma from blood flowing out of the chip device by removing a sample from the outflow port. Thus TAT levels were evaluated in sample effluents collected from the outflow port of the chip using the Human TAT ELISA Kit (Siemens Healthineers) according to the user manual.\nBlood sampled from the Vessel-On-Chip outflow port was analyzed for thrombin anti-thrombin complex (TAT), a factor released upon activation of the coagulation cascade and one of the biomarkers associated with thrombotic events occurring in patients affected with deep vein thrombosis (DVT) or SLE^45,46. […] An enzyme-linked immunosorbant assay (ELISA) was used to quantify the thrombin anti-thrombin complex (TAT)."}, "[3]": {"tested_on": "platelets in human whole blood over HUVEC endothelium", "experiment": "Vessel-On-Chip blood perfusion, platelet coverage by fluorescence imaging", "assay_type": "cell-based", "details": "for platelet aggregation / platelet coverage: TNF-α 50 ng/ml 6 hours endothelial pre-treatment or sCollagen 10 μg/ml in blood, vs blood alone; for platelet aggregate formation / platelet coverage: hu5C8 240 μg/ml, sCD40L 10 ng/ml, untreated endothelium, 60 μl/minute, vs untreated blood", "protocol": "as §1, §2\nPlatelets were labeled with human CD41-PE antibody (10 μL/ml, Invitrogen) directly added to the blood and incubated at room temperature for 5 minutes.\nA medical grade plastic reservoir was mounted on the chip, then 800 μl of the blood sample was pipetted into the reservoir. The chip was perfused with the blood by withdrawing it at a rate of 60 μl/minute using a syringe pump. The citrated blood was re-calcified 2 minutes after the beginning of each experiment by adding 100 μl/ml of a solution containing 100 mM calcium chloride and 75 mM magnesium chloride to the blood to permit calcium- and magnesium-dependent platelet function and coagulation.\nas §3, §4"}, "patients": {"tested_on": "patients", "details": "hu5C8: lupus nephritis study; IDEC-131: Crohn's disease trial; cited from earlier work"}, "[4]": {"details": "Eptifibatide 2 ug/ml, endothelium inflamed with TNF-α, n=4"}}, "note": "Entries after “also recorded” stand apart in the source; their conditions may differ. Positions of bridges follow the written chain, without caps; N, C: chain ends. Non-standard residues stand in square brackets, D forms with d. Residues, ends and D or L forms follow the SMILES beside them. hArg = N=C(N)NCCCC[C@H](N)C(=O)O; Mpa = O=C(O)CCS"}
{"compound": "hu5C8 (IgG2σ): IgG2σ variant of hu5C8 with an engineered Fc region that eliminates affinity for the FcγRIIa", "values": [{"measurement": "hu5C8-mediated thrombosis on-chip (platelet coverage, fibrin deposition, TAT)", "setting": "FcγRIIa", "result": "did not show signs of thrombosis"}, {"measurement": "hu5C8-mediated thrombosis on-chip (platelet coverage, fibrin deposition, TAT)", "setting": "FcγRIIa; listed as IgG2σ", "result": "suppressed"}, {"measurement": "hu5C8-mediated thrombosis on-chip (platelet coverage, fibrin deposition, TAT)", "setting": "FcγRIIa; listed as hu5C8-IgG2σ", "result": "not detected"}]}
{"compound": "sCollagen: soluble collagen (Soluble Calf Skin, Type I), a standard platelet activator", "values": [{"measurement": "fibrin deposition / fibrin signal intensity", "setting": "[1]", "result": "increased"}, {"measurement": "levels of TAT", "setting": "[2]", "result": "minimally increased; also recorded: elevated levels"}, {"measurement": "platelet aggregation / platelet coverage", "setting": "[3]", "result": "increased; also recorded: high number of larger aggregates"}]}
{"compound": "TNF-α", "values": [{"measurement": "fibrin deposition / fibrin signal intensity", "setting": "[1]", "result": "increased"}, {"measurement": "levels of TAT", "setting": "[2]", "result": "significantly increased; also recorded: elevated levels"}, {"measurement": "platelet aggregation / platelet coverage", "setting": "[3]", "result": "increased; also recorded: high number of larger aggregates"}]}
{"compound": "sCD40L: Recombinant human sCD40 Ligand", "values": [{"measurement": "fibrin deposition / fibrin clot formation", "setting": "[1]", "result": "no significant treatment-related effects"}, {"measurement": "platelet aggregate formation / platelet coverage", "setting": "[3]", "result": "no significant treatment-related effects; also recorded: not statistically significant"}, {"measurement": "increase in platelet coverage in some donors, fold over untreated control", "setting": "[3]; sCD40L alone", "result": "about 2 fold"}]}
{"compound": "hu5C8: humanized monoclonal IgG1 antibody against CD40L, alternatively named anti-sCD40L or anti-CD154", "values": [{"measurement": "fibrin deposition / fibrin clot formation", "setting": "[1]", "result": "no significant treatment-related effects"}, {"measurement": "incidence of thromboembolic events in clinical study", "setting": "patients", "result": "2/18"}, {"measurement": "platelet aggregate formation / platelet coverage", "setting": "[3]", "result": "no significant treatment-related effects"}]}
{"compound": "N=C(N)NCCCC[C@@H]1NC(=O)CCSSC[C@@H](C(N)=O)NC(=O)[C@@H]2CCCN2C(=O)[C@H](Cc2c[nH]c3ccccc23)NC(=O)[C@H](CC(=O)O)NC(=O)CNC1=O", "note": "[Eptifibatide] ([Mpa][hArg]GDWPC-NH2; disulfide 1-7)", "values": [{"measurement": "fibrin clot formation", "setting": "[1]; [4]", "result": "significantly inhibited"}, {"measurement": "fibrin signal (image analysis of multiple experiments)", "setting": "[1]; Eptifibatide 2 ug/ml, samples treated with TNF-α, n=4", "result": "a significant amount of fibrin signal was still detectable"}, {"measurement": "fibrin deposition in stimulated, pro-thrombotic conditions", "setting": "[1]; TNF-α or sCollagen, with Eptifibatide, FIG. 18E-2, n=4 donors", "result": "suppressed"}, {"measurement": "thrombotic events recapitulated in the system", "setting": "FcγRIIa; clinically relevant dosages of Eptifibatide", "result": "inhibited"}, {"measurement": "inhibitory effect on platelet aggregation and fibrin clot formation", "setting": "[3]; Eptifibatide 2 ug/ml, blood treated with sCollagen, n=4", "result": "comparatively modest"}, {"measurement": "platelet aggregation", "setting": "[3]; [4]", "result": "significantly inhibited"}, {"measurement": "platelet adhesion (image analysis of multiple experiments)", "setting": "[3]; Eptifibatide 2 ug/ml, n=4", "result": "completely inhibited"}, {"measurement": "platelet coverage in stimulated, pro-thrombotic conditions", "setting": "[3]; TNF-α or sCollagen, with Eptifibatide, FIG. 18E-1, n=4 donors", "result": "suppressed"}]}
